The text below walks through data of patent US7655643B2, “Antibacterial macrocycles with substituted biphenyl” (AiCuris GmbH & Co. KG, priority 2003, dated 2010).

For orientation: MIC means the smallest concentration in the dilution series that meets the test's criterion for growth inhibition.

Values after ≈ are worked out from the molar mass of the structure shown. Bounds are passed on as bounds.

Common to all, as to assay type: cell-based
In test [1] the test system is S. aureus 133. Description: MIC, liquid dilution test (96-well microtitre plate). Particulars: 18-24 h. How it is done:
The minimum inhibitory concentration (MIC) is the minimum concentration of an antibiotic with which the growth of a test microbe is inhibited over 18-24 h. The inhibitor concentration can in these cases be determined by standard microbiological methods (see, for example, The National Committee for Clinical Laboratory Standards. Methods for dilution antimicrobial susceptibility tests for bacteria that grow aerobically; approved standard-fifth edition. NCCLS document M7-A5 [ISBN 1-56238-394-9]. NCCLS, 940 West Valley Road, Suite 1400, Wayne, Pa. 19087-1898 USA, 2000). The MIC of the compounds of the invention is determined in the liquid dilution test on the 96-well microtitre plate scale. The bacterial microbes are cultivated in a minimal medium (18.5 mM Na2HPO4, 5.7 mM KH2PO4, 9.3 mM NH4Cl, 2.8 mM MgSO4, 17.1 mM NaCl, 0.033 μg/ml thiamine hydrochloride, 1.2 μg/ml nicotinic acid, 0.003 μg/ml biotin, 1% glucose, 25 μg/ml of each proteinogenic amino acid with the exception of phenylalanine; [H.-P. Kroll; unpublished]) with addition of 0.4% BH broth (test medium). In the case of Enterococcus faecium L4001, heat-inactivated fetal calf serum (FCS; GibcoBRL, Germany) is added to the test medium in a final concentration of 10%. Overnight cultures of the test microbes are diluted to an OD578 of 0.001(to 0.01 in the case of enterococci) in fresh test medium, and incubated 1:1 with dilutions of the test substances (1:2 dilution steps) in test medium (200 μl final volume). The cultures are incubated at 37° C. for 18-24 hours; enterococci in the presence of 5% CO2.
The lowest substance concentration in each case at which bacterial growth was no longer visible is defined as the MIC. […] The compounds show a graded antibacterial effect against most of the test microbes.

Test [2] deals with S. aureus 133. Description: MIC, alternative method, agar dilution test. Particulars: agar dilution, 1.5% agar with 20% defibrinated horse blood, 5% CO2, 18-24 h; for MIC: Staphylococcus aureus, 133, read-out: MIC S. aureus 133. Here is the method: (§1) The minimum inhibitory concentration (MIC) is the minimum concentration of an antibiotic with which the growth of a test microbe is inhibited over 18-24 h. The inhibitor concentration can be determined by standard microbiological methods using modified medium in an agar dilution test (see, for example, the National Committee for Clinical Laboratory Standards. Methods for dilution antimicrobial susceptibility tests for bacteria that grow aerobically; approved standard-fifth edition. NCCLS document M7-A5 [ISBN 1-56238-394-9]. NCCLS, 940 West Valley Road, Suite 1400, Wayne, PA. 19087-1898 USA, 2000). The bacterial microbes are cultivated on 1.5% agar plates containing 20% defibrinated horse blood. The test microbes, which are incubated on Columbia blood agar plates (Becton-Dickinson) overnight, are diluted in PBS, adjusted to a microbe count of about 5×10^5 microbes/ml and placed as drops (1-3 μl) on test plates. The test substances contain various dilutions of the test substances (1:2 dilution stages). The cultures are incubated at 37° C. in the presence of 5% CO2 for 18-24 hours.
(§2) The lowest concentration of each substance at which no visible bacterial growth occurs is defined as the MIC and is reported in μg/ml.
For orientation: In agar dilution, organisms are placed on agar that contains the substance at set levels.

Test [3] concerns S. aureus T17. Description: MIC, alternative method, agar dilution test. Particulars: agar dilution, 1.5% agar with 20% defibrinated horse blood, 5% CO2, 18-24 h; for MIC: Staphylococcus aureus, T17, read-out: MIC S. aureus T17. Here is the method:
as §1, §2

Test [4] relates to S. aureus RN4220Bi^R. Kind of test: Biphenomycin B MIC of the isolated resistant colony. Particulars: colony isolated in vitro. How it is done: The S. aureus strain RN422OBi^R is isolated in vitro. […] Whereas about 1×10^7 cells grow on the antibiotic-free plate, about 100 colonies grow on the antibiotic-containing plate, corresponding to a resistance rate of 1×10^−5. Some of the colonies grown on the antibiotic-containing plate are tested for the biphenomycin B MIC. One colony with an MIC of >50 μM is selected for further use, and the strain is referred to as RN4220Bi^R.

[5] abbreviates: Staphylococcus aureus, 133, minimal medium + 0.4% BH broth.

Regarding `NC[C@H](O)C[C@@H]1NC(=O)[C@@H](N)Cc2cc(ccc2O)-c2ccc(O)c(c2)C[C@@H](C(=O)O)NC1=O` [Biphenomycin B, biphenomycin B, reference compound], the MIC in test [1] (minimal medium + 0.4% BH broth) is on record as 0.1 µM. Besides, in test [2], the “MIC S. aureus 133” value was under 0.03 µg/mL. For the same compound, the “MIC S. aureus T17” value in test [3] is over 32 µg/mL. For the same compound, the “MIC, selected colony RN4220Bi^R” value in test [4] was over 50 µM.
Turning to `CN1C(=O)[C@H](C[C@@H](O)CN)NC(=O)[C@@H](N)Cc2cc(ccc2O)-c2ccc(Cl)c(c2)C[C@H]1C(=O)NCC(O)CN` (stereo partly shown) [Example 9], the values for the minimum inhibitory concentration (MIC) in test [1] (setting [5]), in test [2] and in test [3] were 0.35 µM, 2 µg/mL (≈ 3.47 µM) and 4 µg/mL (≈ 6.93 µM), respectively.
The corresponding values for `NCCNC(=O)[C@@H]1Cc2cc(ccc2F)-c2ccc(O)c(c2)C[C@H](N)C(=O)N[C@@H](C[C@@H](O)CN)C(=O)N1` [Example 12] are 0.16 µM, 1 µg/mL (≈ 1.94 µM) and 1 µg/mL (≈ 1.94 µM).
`NCCNC(=O)[C@@H]1Cc2cccc(c2)-c2ccc(O)c(c2)C[C@H](N)C(=O)N[C@@H](C[C@@H](O)CN)C(=O)N1` [Example 36, (8S,11S,14S)-14-Amino-N-(2-aminoethyl)-11-[(2R) -3-amino-2-hydroxypropyl]-17-hydroxy-10,13-dioxo-9,12-diazatricyclo-[14.3.1.1^2,6]henicosa-1(20),2(21),3,5,16,18-hexaene-8-carboxamide tri(hydrotrifluoroacetate)]: the MIC came out at 0.4 µM in test [1] (setting [5]), 1 µg/mL (≈ 2.01 µM) in test [2] and 2 µg/mL (≈ 4.01 µM) in test [3].
